Reference: PubChem BioAssay (NCI)
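These data come from cells grown in 96-well plates and exposed to compound for 48 hours at five concentrations. At the TGI there is no net growth.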

Experiments:
Assay in all cases: inhibition of tumour cell growth, NCI panel, 48 h
[1] = tested on: 786-0 renal
[2] = tested on: A498 renal
[3] = tested on: A549 NSCLC
[4] = tested on: ACHN renal
[5] = tested on: BT-549 breast
[6] = tested on: CAKI-1 renal
[7] = tested on: CCRF-CEM leukemia
[8] = tested on: COLO 205 colon
[9] = tested on: DU-145 prostate
[10] = tested on: EKVX NSCLC
[11] = tested on: HCC-2998 colon
[12] = tested on: HCT-116 colon
[13] = tested on: HCT-15 colon
[14] = tested on: HL-60(TB) leukemia
[15] = tested on: HOP-62 NSCLC
[16] = tested on: HOP-92 NSCLC
[17] = tested on: HS 578T breast
[18] = tested on: HT29 colon
[19] = tested on: IGROV1 ovarian
[20] = tested on: K-562 leukemia
[21] = tested on: KM12 colon
[22] = tested on: LOX IMVI melanoma
[23] = tested on: M14 melanoma
[24] = tested on: MALME-3M melanoma
[25] = tested on: MCF7 breast
[26] = tested on: MDA-MB-231 breast
[27] = tested on: MDA-MB-435
[28] = tested on: MDA-N
[29] = tested on: MOLT-4 leukemia
[30] = tested on: NCI-H226 lung
[31] = tested on: NCI-H23 lung
[32] = tested on: NCI-H460 lung
[33] = tested on: NCI-H522 lung
[34] = tested on: NCI/ADR-RES ovarian
[35] = tested on: OVCAR-3 ovarian
[36] = tested on: OVCAR-4 ovarian
[37] = tested on: OVCAR-5 ovarian
[38] = tested on: OVCAR-8 ovarian
[39] = tested on: PC-3 prostate
[40] = tested on: RPMI-8226 leukemia
[41] = tested on: RXF 393 renal
[42] = tested on: SF-268 CNS
[43] = tested on: SF-295 CNS
[44] = tested on: SF-539 CNS
[45] = tested on: SK-MEL-2 melanoma
[46] = tested on: SK-MEL-28 melanoma
[47] = tested on: SK-MEL-5 melanoma
[48] = tested on: SK-OV-3 ovarian
[49] = tested on: SN12C renal
[50] = tested on: SNB-19 CNS
[51] = tested on: SNB-75 CNS
[52] = tested on: SR leukemia
[53] = tested on: SW-620 colon
[54] = tested on: T-47D breast
[55] = tested on: TK-10 renal
[56] = tested on: U251 CNS
[57] = tested on: UACC-257 melanoma
[58] = tested on: UACC-62 melanoma
[59] = tested on: UO-31 renal

COc1ccc(C(=O)/C=C/c2ccc(O)c(O)c2)c(OC)c1
TGI [1]: 44.3 µM
TGI [2]: 21.2 µM
TGI [3]: 97.3 µM
TGI [4]: > 70.3 µM
TGI [5]: 20.4 µM
TGI [6]: 34.5 µM
TGI [7]: > 32 µM
TGI [8]: 28.8 µM
TGI [9]: 15.7 µM
TGI [10]: > 79.6 µM
TGI [11]: 3.4 µM
TGI [12]: 16.1 µM
TGI [13]: 24.3 µM
TGI [14]: 2.53 µM
TGI [15]: 60.3 µM
TGI [16]: > 100 µM
TGI [17]: > 100 µM
TGI [18]: 32 µM
TGI [19]: > 100 µM
TGI [20]: > 37.6 µM
TGI [21]: 15 µM
TGI [22]: 26.4 µM
TGI [23]: 19 µM
TGI [24]: 21.8 µM
TGI [25]: 14.1 µM
TGI [26]: 27.3 µM
TGI [27]: > 48.5 µM
TGI [28]: > 46.2 µM
TGI [29]: > 38.9 µM
TGI [30]: 22.3 µM
TGI [31]: 18.3 µM
TGI [32]: 15.9 µM
TGI [33]: 0.74 µM
TGI [34]: > 61.2 µM
TGI [35]: 2.66 µM
TGI [36]: > 100 µM
TGI [37]: 47.2 µM
TGI [38]: > 86.6 µM
TGI [39]: 26.4 µM
TGI [40]: 15.8 µM
TGI [41]: 39.2 µM
TGI [42]: > 52.6 µM
TGI [43]: 31 µM
TGI [44]: 7.55 µM
TGI [45]: 9.82 µM
TGI [46]: 48.4 µM
TGI [47]: 13.3 µM
TGI [48]: > 67.9 µM
TGI [49]: 13.2 µM
TGI [50]: 19.4 µM
TGI [51]: 29.5 µM
TGI [52]: 6.54 µM
TGI [53]: > 63.8 µM
TGI [54]: > 100 µM
TGI [55]: 20.2 µM
TGI [56]: 16.6 µM
TGI [57]: 15.3 µM
TGI [58]: 14.4 µM
TGI [59]: 41.6 µM

C=CCC1(OCc2ccccc2)C(=O)C(=O)OC1C1COC(C)(C)O1 (stereo unspecified)
TGI [1]: > 100 µM
TGI [2]: > 100 µM
TGI [3]: > 100 µM
TGI [4]: > 100 µM
TGI [5]: > 100 µM
TGI [6]: > 100 µM
TGI [7]: > 100 µM
TGI [8]: > 100 µM
TGI [9]: > 100 µM
TGI [10]: > 100 µM
TGI [11]: > 100 µM
TGI [12]: > 100 µM
TGI [13]: > 100 µM
TGI [14]: > 100 µM
TGI [15]: > 100 µM
TGI [17]: > 100 µM
TGI [18]: > 100 µM
TGI [20]: > 100 µM
TGI [21]: > 100 µM
TGI [22]: > 100 µM
TGI [23]: > 100 µM
TGI [24]: > 100 µM
TGI [25]: > 100 µM
TGI [26]: > 100 µM
TGI [27]: > 100 µM
TGI [28]: > 100 µM
TGI [29]: > 100 µM
TGI [30]: > 100 µM
TGI [31]: > 100 µM
TGI [32]: > 100 µM
TGI [33]: > 100 µM
TGI [34]: > 100 µM
TGI [35]: > 100 µM
TGI [36]: > 100 µM
TGI [37]: > 100 µM
TGI [38]: > 100 µM
TGI [39]: > 100 µM
TGI [40]: > 100 µM
TGI [41]: > 100 µM
TGI [42]: > 100 µM
TGI [43]: > 100 µM
TGI [44]: > 100 µM
TGI [45]: > 100 µM
TGI [46]: > 100 µM
TGI [47]: > 100 µM
TGI [48]: > 100 µM
TGI [49]: > 100 µM
TGI [50]: > 100 µM
TGI [51]: > 100 µM
TGI [52]: > 100 µM
TGI [53]: > 100 µM
TGI [54]: > 100 µM
TGI [55]: > 100 µM
TGI [56]: > 100 µM
TGI [57]: > 100 µM
TGI [58]: > 100 µM
TGI [59]: > 100 µM
